# Measured values published in PMC11879040, “Advancing systemic toxicity risk assessment: Evaluation of a NAM-based toolbox approach” (Toxicological Sciences, 2024).
# Where two headings read alike, the source gives them in different places.
# Key:
# [1] = target: T1, Estrogen receptor, ER1 (h) (Homo sapiens, UniProt P03372); test: IPP ER1 coactivator recruitment (agonist); assay type: biochemical; settings: estriol
# T1 construct: purchased Eurofins Cerep (SafetyScreen44-based IPP panel)
# T1 sequence (P03372 1-595): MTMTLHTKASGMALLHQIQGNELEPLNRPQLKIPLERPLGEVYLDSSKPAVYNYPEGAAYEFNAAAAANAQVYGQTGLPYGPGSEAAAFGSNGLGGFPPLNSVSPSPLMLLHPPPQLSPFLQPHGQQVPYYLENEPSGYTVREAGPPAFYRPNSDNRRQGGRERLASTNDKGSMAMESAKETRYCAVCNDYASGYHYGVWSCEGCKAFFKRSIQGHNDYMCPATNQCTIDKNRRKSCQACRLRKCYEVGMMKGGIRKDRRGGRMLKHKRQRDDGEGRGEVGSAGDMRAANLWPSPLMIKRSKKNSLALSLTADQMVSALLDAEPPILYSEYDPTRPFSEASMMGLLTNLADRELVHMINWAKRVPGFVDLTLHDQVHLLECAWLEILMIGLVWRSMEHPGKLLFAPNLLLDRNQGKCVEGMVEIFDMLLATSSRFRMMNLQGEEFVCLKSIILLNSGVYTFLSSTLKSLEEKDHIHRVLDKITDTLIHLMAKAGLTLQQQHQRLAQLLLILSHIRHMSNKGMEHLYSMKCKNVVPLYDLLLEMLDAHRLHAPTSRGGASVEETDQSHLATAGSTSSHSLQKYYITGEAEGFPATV
# [2] = human
# [3] = target: T1, Estrogen receptor, ER1 (h); test: IPP ER1 coactivator recruitment (antagonist); assay type: biochemical; settings: estriol
# human = settings: cited from earlier work
# [4] = tested on: Thyroid hormone receptor alpha, THRA (h); test: IPP THRA coactivator recruitment (agonist); assay type: biochemical, human; settings: agonist, T3
# [5] = tested on: Glutamate receptor ionotropic NMDA 1 non-selective, GRIN1 (r); settings: control CGS 19755
# rat = settings: rat; 7 days; ref ToxRefDB/Paul-Friedman et al. (2020)/regulatory opinions; cited from earlier work
# [6] = tested on: Gamma-aminobutyric acid receptor subunit alpha-1 BZD site, GABRA1A (r); assay type: binding, rat; settings: control diazepam
# [7] = tested on: Potassium Voltage-Gated Channel Kv non-selective, KCNQ1 (r); test: IPP KCNQ1 binding (antagonist radioligand); design: species or system rat; settings: control α-dendrotoxin
# [8] = target: T2, Adenosine receptor A2a, ADORA2A (h) (Homo sapiens, UniProt P29274); test: IPP ADORA2A binding (agonist radioligand); settings: control NECA
# T2 construct: purchased Eurofins Cerep (SafetyScreen44-based IPP panel)
# [9] = tested on: Sodium channel protein type 5 subunit alpha (site 2), SCN5A (r); assay type: binding, rat
# [10] = target: Potassium voltage-gated channel subfamily H member 2 hERG, KCNH2 (h) (Homo sapiens, UniProt Q12809); settings: [3H] Dofetilide, control Terfenadine
# HepaRG cells = test: High-throughput transcriptomics (HTTr, TempO-Seq), HepaRG, 24 h; assay type: cell-based, human; settings: HepaRG; for pod_httr_bifrost PoD: HTTr BIFROST PoD; for podl_path_minbmd PoD: HTTr minimum pathway BMD(L)
# Method: (§1) HepG2, HepaRG, and MCF7 cells were treated with each compound for 24 h across a dose range of 7 concentrations and lysed using TempO-Seq lysis buffer (BioSpyder Technologies, proprietary kit, see [Middleton et al. 2022] for method details). Sequencing was performed using TempO-Seq (BioClavis) version 2 of the human whole transcriptome panel and analyzed as described previously in Middleton et al.
# [11] = tested on: 63 targets with known safety liabilities; test: In vitro pharmacological profiling (IPP) panel, screening at 10 or 100 µM and dose response, minimum IC50/AC50; assay type: biochemical; settings: lowest AC50 across IPP panel (systemic targets); cell_type -; read-out: ipp_lowest_ac50_systemic PoD
# MCF7 cells = test: High-throughput transcriptomics (HTTr, TempO-Seq), MCF7, 24 h; assay type: cell-based, human; settings: MCF-7; for pod_httr_bifrost PoD: HTTr BIFROST PoD; for podl_path_minbmd PoD: HTTr minimum pathway BMD(L)
# Method: as §1
# HepG2 cells [12] = test: Cell stress panel (CSP), 24 h, 8 concentrations, BIFROST global PoD; assay type: cell-based; settings: HepG2; cell stress panel PoD
# Method: Compounds were tested using the previously developed cell stress panel ([Hatherell et al. 2020]) and the expanded biomarker panel outlined in Middleton et al. HepG2 cells were treated with all compounds for 24 h across 8 concentrations prior to biomarker analysis. The same plate layout and number of replicates (3 biological and 2 technical) were used as previously for each assay within the panel.
# Tubulin (r) = test: IPP Tubulin binding; design: species or system rat; settings: ligand/control Colchicine
# HepG2 cells [13] = test: High-throughput transcriptomics (HTTr, TempO-Seq), HepG2, 24 h; assay type: cell-based, human; settings: HepG2; for pod_httr_bifrost PoD: HTTr BIFROST PoD; for podl_path_minbmd PoD: HTTr minimum pathway BMD(L)
# Method: as §1
# [14] = PBK level L2; single value or median; ref [2],[4],[6],[7],[8],[10],[11],[15],[18],[27],[34]; cited from earlier work
# [15] = Assignment of risk classifications to benchmark chemical-exposure scenarios; settings: for risk: from table S1
# [16] = PBK level L2; taken or scaled from references (median where several); ref [6],[7],[10],[19]; cited from earlier work
# [17] = target: Voltage-dependent L-type Ca2+ channel (dihydropyridine site), CACNA1C (r) (Rattus norvegicus, UniProt P22002); assay type: binding
# [18] = cited from earlier work
# dog = settings: 52 weeks, ref ToxRefDB/Paul-Friedman et al. (2020)/regulatory opinions; cited from earlier work
# [19] = IPP screening at 10 uM, control veratridine
# [20] = 100 uM, * denotes assay interference (2-Amino-6-chloro-4-nitrophenol, HC Red 3)
# Potassium voltage-gated channel subfamily H member 2 hERG, KCNH2 (h), sequence (Q12809 whole entry): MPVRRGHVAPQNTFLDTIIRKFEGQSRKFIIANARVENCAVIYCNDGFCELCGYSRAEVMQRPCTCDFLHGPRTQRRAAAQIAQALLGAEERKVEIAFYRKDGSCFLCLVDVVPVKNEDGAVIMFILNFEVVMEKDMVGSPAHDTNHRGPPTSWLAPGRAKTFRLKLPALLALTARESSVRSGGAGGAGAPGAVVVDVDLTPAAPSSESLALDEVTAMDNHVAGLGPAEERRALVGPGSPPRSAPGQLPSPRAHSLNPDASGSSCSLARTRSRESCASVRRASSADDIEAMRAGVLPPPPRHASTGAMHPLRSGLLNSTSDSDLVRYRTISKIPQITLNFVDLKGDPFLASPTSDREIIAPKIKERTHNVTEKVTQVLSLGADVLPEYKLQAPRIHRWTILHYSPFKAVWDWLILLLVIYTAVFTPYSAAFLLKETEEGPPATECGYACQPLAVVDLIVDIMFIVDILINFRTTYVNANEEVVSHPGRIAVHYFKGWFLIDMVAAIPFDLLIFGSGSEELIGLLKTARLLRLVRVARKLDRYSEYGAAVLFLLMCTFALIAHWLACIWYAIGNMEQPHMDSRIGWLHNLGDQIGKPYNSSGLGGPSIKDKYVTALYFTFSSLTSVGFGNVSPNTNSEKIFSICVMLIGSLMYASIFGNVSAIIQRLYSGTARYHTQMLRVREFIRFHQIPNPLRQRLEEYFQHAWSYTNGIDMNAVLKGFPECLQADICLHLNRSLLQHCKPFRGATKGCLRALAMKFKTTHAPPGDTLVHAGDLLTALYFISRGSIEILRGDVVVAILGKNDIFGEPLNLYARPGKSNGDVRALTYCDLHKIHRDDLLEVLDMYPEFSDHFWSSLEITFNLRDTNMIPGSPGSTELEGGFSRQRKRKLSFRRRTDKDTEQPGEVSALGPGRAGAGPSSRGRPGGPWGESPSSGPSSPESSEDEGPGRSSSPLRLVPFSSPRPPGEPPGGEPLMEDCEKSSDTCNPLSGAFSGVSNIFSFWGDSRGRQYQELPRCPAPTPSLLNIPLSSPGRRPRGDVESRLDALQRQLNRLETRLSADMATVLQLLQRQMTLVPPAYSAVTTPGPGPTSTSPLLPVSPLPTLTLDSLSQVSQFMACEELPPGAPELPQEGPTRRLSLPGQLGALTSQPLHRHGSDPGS
# T2 sequence (P29274 whole entry): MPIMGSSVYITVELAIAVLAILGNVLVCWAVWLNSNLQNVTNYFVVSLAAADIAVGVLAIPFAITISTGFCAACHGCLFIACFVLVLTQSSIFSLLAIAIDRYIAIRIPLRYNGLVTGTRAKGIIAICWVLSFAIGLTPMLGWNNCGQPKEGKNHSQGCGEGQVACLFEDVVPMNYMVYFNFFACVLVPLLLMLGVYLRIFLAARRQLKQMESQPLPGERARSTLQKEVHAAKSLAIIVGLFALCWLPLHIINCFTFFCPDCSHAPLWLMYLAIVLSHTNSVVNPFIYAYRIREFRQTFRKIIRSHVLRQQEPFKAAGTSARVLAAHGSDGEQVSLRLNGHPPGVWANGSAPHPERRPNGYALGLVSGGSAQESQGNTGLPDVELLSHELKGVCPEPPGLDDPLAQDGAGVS
# Voltage-dependent L-type Ca2+ channel (dihydropyridine site), CACNA1C (r), sequence (P22002 whole entry): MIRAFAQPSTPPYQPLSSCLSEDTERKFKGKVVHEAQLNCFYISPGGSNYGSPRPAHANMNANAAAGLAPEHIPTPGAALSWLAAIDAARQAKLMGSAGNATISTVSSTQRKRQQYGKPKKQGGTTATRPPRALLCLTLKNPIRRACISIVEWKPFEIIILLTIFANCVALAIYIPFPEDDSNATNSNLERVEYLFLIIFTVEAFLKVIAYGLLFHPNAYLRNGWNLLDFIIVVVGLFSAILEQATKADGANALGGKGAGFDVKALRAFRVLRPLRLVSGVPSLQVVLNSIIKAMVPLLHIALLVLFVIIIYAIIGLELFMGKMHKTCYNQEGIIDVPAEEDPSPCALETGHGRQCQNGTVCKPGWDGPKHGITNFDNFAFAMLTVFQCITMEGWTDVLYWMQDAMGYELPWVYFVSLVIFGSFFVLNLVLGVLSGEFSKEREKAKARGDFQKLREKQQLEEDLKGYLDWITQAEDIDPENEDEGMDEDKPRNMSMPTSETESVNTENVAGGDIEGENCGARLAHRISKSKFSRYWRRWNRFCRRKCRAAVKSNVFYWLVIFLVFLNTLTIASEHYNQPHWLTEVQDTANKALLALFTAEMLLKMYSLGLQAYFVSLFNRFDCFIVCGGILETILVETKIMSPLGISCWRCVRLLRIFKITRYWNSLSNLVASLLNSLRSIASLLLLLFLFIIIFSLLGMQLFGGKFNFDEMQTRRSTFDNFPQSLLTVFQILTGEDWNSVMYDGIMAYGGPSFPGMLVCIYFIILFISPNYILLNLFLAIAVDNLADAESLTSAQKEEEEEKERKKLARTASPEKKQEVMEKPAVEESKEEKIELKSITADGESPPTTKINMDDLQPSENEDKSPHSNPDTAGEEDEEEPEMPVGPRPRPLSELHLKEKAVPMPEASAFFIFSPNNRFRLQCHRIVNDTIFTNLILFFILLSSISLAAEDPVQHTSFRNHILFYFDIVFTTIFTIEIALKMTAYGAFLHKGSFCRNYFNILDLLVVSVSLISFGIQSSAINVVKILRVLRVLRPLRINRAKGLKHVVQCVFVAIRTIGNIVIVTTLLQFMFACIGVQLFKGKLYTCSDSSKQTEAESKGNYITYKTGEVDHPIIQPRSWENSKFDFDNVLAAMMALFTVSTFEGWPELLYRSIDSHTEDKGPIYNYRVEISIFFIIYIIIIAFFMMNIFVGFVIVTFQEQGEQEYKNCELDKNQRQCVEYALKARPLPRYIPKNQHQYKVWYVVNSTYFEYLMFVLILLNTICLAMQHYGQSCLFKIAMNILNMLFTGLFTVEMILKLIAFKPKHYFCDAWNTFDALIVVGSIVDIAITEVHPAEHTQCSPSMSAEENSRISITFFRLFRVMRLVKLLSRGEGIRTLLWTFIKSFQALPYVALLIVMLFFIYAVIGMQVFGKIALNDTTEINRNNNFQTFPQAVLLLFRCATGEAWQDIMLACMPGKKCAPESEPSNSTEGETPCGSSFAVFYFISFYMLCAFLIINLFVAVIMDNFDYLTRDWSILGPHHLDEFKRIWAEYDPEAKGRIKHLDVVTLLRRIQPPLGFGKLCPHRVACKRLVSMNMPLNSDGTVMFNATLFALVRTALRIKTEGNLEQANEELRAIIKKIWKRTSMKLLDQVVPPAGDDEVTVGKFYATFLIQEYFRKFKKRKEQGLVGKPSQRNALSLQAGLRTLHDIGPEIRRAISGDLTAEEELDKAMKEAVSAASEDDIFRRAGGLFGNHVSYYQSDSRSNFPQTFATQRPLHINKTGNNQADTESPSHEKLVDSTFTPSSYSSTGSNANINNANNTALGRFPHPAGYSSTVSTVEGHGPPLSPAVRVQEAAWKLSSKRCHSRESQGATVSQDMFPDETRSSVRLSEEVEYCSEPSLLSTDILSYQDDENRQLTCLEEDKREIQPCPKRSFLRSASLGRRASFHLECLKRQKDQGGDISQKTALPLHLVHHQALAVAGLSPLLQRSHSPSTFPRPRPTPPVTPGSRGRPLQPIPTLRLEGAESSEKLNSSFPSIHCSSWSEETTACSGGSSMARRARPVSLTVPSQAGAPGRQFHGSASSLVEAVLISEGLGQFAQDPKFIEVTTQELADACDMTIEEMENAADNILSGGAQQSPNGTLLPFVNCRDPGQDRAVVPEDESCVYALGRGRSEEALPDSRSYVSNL
Compound,"IPP screening %, Coactivator recruitment ([4]; 10 uM) [%]",Specific binding ([5]; IPP screening at 10 uM) [%],Specific binding ([6]; IPP screening at 10 uM) [%],Specific binding ([7]; IPP screening at 10 uM) [%],Specific binding ([8]; IPP screening at 10 uM) [%],"Specific binding [9, 19] [%]","IPP screening %, Specific binding ([10]; 10 uM) [%]",pod_httr_bifrost PoD (HepaRG cells) [µM],podl_path_minbmd PoD (HepaRG cells) [µM],AC50 [11] [µM],pod_httr_bifrost PoD (MCF7 cells) [µM],podl_path_minbmd PoD (MCF7 cells) [µM],pod_cell_stress PoD (HepG2 cells [12]) [µM],"IPP screening %, Coactivator recruitment [4, 20] [%]",Specific binding ([5]; IPP screening at 100 uM) [%],"IPP screening %, Specific binding (Tubulin (r); 100 uM) [%]",pod_httr_bifrost PoD (HepG2 cells [13]) [µM],podl_path_minbmd PoD (HepG2 cells [13]) [µM],Specific binding ([6]; IPP screening at 100 uM) [%],Specific binding ([7]; IPP screening at 100 uM) [%],also measured
"O=CCCCC=O [Glutaraldehyde, Pentanedial]",3.0,-4.1,-5.0,5.2,-3.4,13.2,-1.1,,,,,,,,,,,,,,"IPP screening %, Coactivator recruitment ([1]; 10 uM): 2.0%; risk [2]: 0; IPP screening %, Coactivator recruitment ([3]; 10 uM): -9.0%; NOAEL (human; 1 year human study, ref not given): The lowest NOAEL from a rat repeat-dose study. Not there is also a 1 year human study with a NOAEL of 3 mkd.; PoD (NOAEL) (rat): 1 mg/kg bw/day"
"CCOC(=O)c1ccc(N)cc1 [Benzocaine, Ethyl 4-aminobenzoate]",,,,,,,,103.552,413.121,6,0.8705,19.4739,47.784,2.0,11.5,15.0,9.489,242.367,-9.1,3.6,"adverse event reports related to methaemaglobinemia (human; of the 218 adverse event reports identified by Moore et al, ref [9]): Of the 218 adverse event reports identified by Moore et al, 136 were related to methaemaglobinemia with 2 cases resulting in deaths and 107 resulting in serious events.; Fup [14]: 36.7%; Risk Classification ([15]; Dermal 20% in Gel): High risk; risk ([15]; Oral, 22mg/kg is the safety dose, Solution, Exp1): 1; Intrinsic Liver Clearance [16]: 7799.2 L/h; Specific binding ([8]; IPP screening at 100 uM): 36.2%; Specific binding [9]: -0.8%; Specific binding [17]: 10.5%"
"CCN(CC)C(=O)c1cccc(C)c1 [DEET, N,N-Diethyl-3-methylbenzamide]",,,,,,,,24.7921,567.13,53.7,67.2542,670.53,29.817,0.0,4.4,-14.0,16.9912,582.029,8.9,-4.9,"IPP screening %, Coactivator recruitment [1, 20]: 2.0%; IPP screening %, Coactivator recruitment [3, 20]: 0.0%; risk ([15]; Dermal, 15%, Sun lotion, Exp1): 0; NOAEL ([18]; 2-gen study, alpha-2-u nephropathy not relevant for humans, ref https://doi.org/10.1016/B978-0-12-374367-1.00098-7): Lowest human-relevant NOAEL was from a subchronic study. NOAEL of 25 mkd from 2-gen study appears to be based on alpha-2-u nephropathy which is not relevant for humans (https://doi.org/10.1016/B978-0-12-374367-1.001-7); PoD (NOAEL) ([18]; species '-', 364 days, ref ToxRefDB/Paul-Friedman et al. (2020)/regulatory opinions): 100 mg/kg bw/day; Specific binding ([8]; IPP screening at 100 uM): 20.5%; Specific binding ([9]; IPP screening at 100 uM, control veratridine): 11.7%; IPP screening %, Specific binding ([10]; 100 uM): -12.0%"
"N#CC(CCc1ccc(Cl)cc1)(Cn1cncn1)c1ccccc1 (stereo not drawn) [Fenbuconazole, 4-(4-Chlorophenyl)-2-phenyl-2-[(1H-1,2,4-triazol-1-yl)methyl]butanenitrile]",2.0,38.6,3.5,3.0,34.0,100.8,79.9,0.6247,4.705,2.86,1.305,15.4204,2.477,,,,0.5034,16.5577,,,"PoD (NOAEL) (dog): 0.38 mg/kg bw/day; IPP screening %, Specific binding (Tubulin (r); 10 uM): -20.0%; Fup [14]: 2%; Risk Classification ([15]; Oral, residue, 0.006 mg/kg bw/day): Low risk; Risk Classification ([15]; Oral, residue, 73% of 0.006 mg/kg bw/day): Low risk; risk ([15]; Oral, 73% ADI of 0.006 mg/kg bw/day, Food residue, Exp3): 0; risk ([15]; Oral, ADI 0.006 mg/kg bw/day, Food residue, Exp2): 0; Intrinsic Liver Clearance [16]: 10900 L/h; Specific binding ([17]; IPP screening at 10 uM, control nitrendipine): 97.8%"
